The source of these data is patent publication US20060270658A1, “Use of oxcarbazepine for the treatment of diabetic neuropathic pain and the improvement of sleep” (priority 2003, published 2006).

In assay [1] the test system is Patients suffering from diabetic neuropathic pain. In words: Clinical study in human diabetic neuropathic pain patients (double-blind, placebo-controlled, 112 days). It is filed as in vivo. The conditions noted are these: 1800 mg/day total dosage. The method, then: FIG. 1 depicts the average VAS score (y-axis) during the last week of treatment of the clinical study described in Example 1. The darker area represents the scores obtained in the group of patients obtaining oxcarbazepine at a daily dosage of 1800 mg (N=68). The brighter area represents the score for the placebo group (N=76). FIG. 2 illustrates the average VAS score (y-axis) by week (x-axis) of the clinical study described in Example 1. The upper lines represents the score for the placebo group (N=76). The lower line represents the scores obtained in the group of patients obtaining oxcarbazepine at a daily dosage of 1800 mg (N=68). In a clinical study in a Caucasian patient population, a full double-blind treatment was conducted for a period of 112 days. Patients suffering from diabetic neuropathic pain obtained placebo or oxcarbazepine.

Assay [2] deals with patients with neuropathic pain of diabetic origin. In words: Impact of oxcarbazepine on sleep in human diabetic neuropathic pain patients (daily sleep questionnaire). The conditions noted are these: up to 1800 mg/day; for Awaken from sleep, % days during double-blind phase, mean (SD): P 0.02 vs placebo. It is filed as in vivo. The method, then: In a multicenter, placebo-controlled, double-blind, parallel-group study the efficacy of oxcarbazepine up to 1800 mg/day in patients with neuropathic pain of diabetic origin was evaluated. The study consisted of three phases: a pre-randomization screening phase (2 weeks); a double-blind treatment phase (18 weeks); and an open-label extension phase (52 weeks). The double-blind treatment phase was further divided into a titration period of 4 weeks, a maintenance period of 12 weeks, and a follow-up period of 2 weeks. Patients who met all inclusion criteria were randomized in a 1:1 ratio to receive either study medication or placebo during double-blind treatment (16 weeks). After randomization into the double-blind treatment phase, oxcarbazepine or placebo was initiated at 300 mg/day, and increased 3 days later to 300 mg twice a day (600 mg/day). After this, oxcarbazepine was titrated as tolerated up to a maximum target dose of 900 mg twice a day (1800 mg/day) in increments of 300 mg every 5 days over the 4-week titration period. During the remaining 12 weeks of the study (maintenance period), oxcarbazepine treatment remained at the dose reached by day 28. Patient response to the following three questions from the daily sleep questionnaire were used to assess disturbances of sleep over double-blind treatment: 1) Did your pain delay you in getting to sleep last night? 2) Did your pain awaken you from sleep more than one time last night? 3) Did you feel rested after sleep this morning?

Setting [3] is: difference did not achieve statistical significance.

Consider `NC(=O)N1c2ccccc2CC(=O)c2ccccc21` [Oxcarbazepine, 10-oxo-10, 11-dihydro-5H-dibenz[b,f]azepine-5-carboxamide], for which the “average Visual Analog Scale (VAS) for pain severity score during the last week of double-blind treatment, versus placebo” value in assay [1] (Caucasian patient population, 112 days double-blind, p=0.0108) is “statistically significantly superior to placebo”. Also, in assay [1] (placebo group 39.7%, p=0.0003), the “percentage of responders (those felt slightly, much, or very much improved)” value was determined as 73.2%. For the same molecule, the “Awaken from sleep, % days during double-blind phase, mean (SD)” value in assay [2] (ITT population, n = 68) is listed as 31 (29) % days. The “Awaken from sleep, % days during double-blind phase, mean (SD)” value in assay [2] (ITT population, n = 68, listed as oxcarbazepine) is recorded as 31 % days. In addition, the “Delayed getting to sleep, % days during double-blind phase, mean (SD)” value in assay [2] (ITT population, n = 68, P 0.09 vs placebo) is given as 28 (31) % days. The “Felt rested after sleep, % days during double-blind phase, mean (SD)” value in assay [2] (ITT population, n = 68, P 0.17 vs placebo) is 55 (34) % days. Moreover, in assay [2] (setting [3]), the “proportion of patients experiencing delays in getting to sleep, in comparison with placebo” value is “lower proportion” and the “proportion of patients who felt rested after sleep, in comparison with placebo” value is “greater proportion”.
